Results as given in article PMC3525792 (Bioorganic & medicinal chemistry letters, 2012).

Columns and labels:
SERT = conditions: read-out: SERT binding Ki; cited from earlier work
fluorescent properties = format: physicochemical
[1] = substrate: NCCc1ccc(O)c(O)c1; test: cells, lysate or membranes; conditions: other: substrate KM, determined in parallel; mean [SE interval]

## CN(C)CCCC1(c2ccc(F)cc2)OCc2cc(-c3cccc(N)c3)ccc21 (stereo not shown) [compound 3]
SERT
  Ki: 10.4 nM

## CCN(CC)c1ccc2c(-c3ccc(S(=O)(=O)NCCCCCC(=O)NCCC(=O)Nc4cccc(-c5ccc6c(c5)COC6(CCCN(C)C)c5ccc(F)cc5)c4)cc3S(=O)(=O)[O-])c3ccc(=[N+](CC)CC)cc-3oc2c1 (stereo not shown) [compound 8]
Fluorescent properties
  maximal emission wavelength: 592 nm
  maximal excitation wavelength: 570 nm

B1: hDAT (Homo sapiens) (protein)
chain: MSKSKCSVGLMSSVVAPAKEPNAVGPKEVELILVKEQNGVQLTSSTLTNPRQSPVEAQDRETWGKKIDFLLSVIGFAVDLANVWRFPYLCYKNGGGAFLVPYLLFMVIAGMPLFYMELALGQFNREGAAGVWKICPILKGVGFTVILISLYVGFFYNVIIAWALHYLFSSFTTELPWIHCNNSWNSPNCSDAHPGDSSGDSSGLNDTFGTTPAAEYFERGVLHLHQSHGIDDLGPPRWQLTACLVLVIVLLYFSLWKGVKTSGKVVWITATMPYVVLTALLLRGVTLPGAIDGIRAYLSVDFYRLCEASVWIDAATQVCFSLGVGFGVLIAFSSYNKFTNNCYRDAIVTTSINSLTSFSSGFVVFSFLGYMAQKHSVPIGDVAKDGPGLIFIIYPEAIATLPLSSAWAVVFFIMLLTLGIDSAMGGMESVITGLIDEFQLLHRHRELFTLFIVLATFLLSLFCVTNGGIYVFTLLDHFAAGTSILFGVLIEAIGVAWFYGVGQFSDDIQQMTGQRPSLYWRLCWKLVSPCFLLFVVVVSIVTFRPPHYGAYIFPDWANALGWVIATSSMAMVPIYAAYKFCSLPGSFREKLAYAIAPEKDRELVDRGEVRQFTLRHWLKV
[1]
  Km: 1010[909;1120] nM
